Laboratory results from patent publication US12453712B2, “Antitumoral use of cabazitaxel” (Sanofi Mature IP, priority 2009, dated 2025).

How the values were obtained:
[1] = tested on: castration resistant metastatic prostate cancer; test: Randomized clinical study of cabazitaxel vs mitoxantrone, each with prednisone or prednisolone: efficacy; format: in vivo, human; conditions: intention-to-treat
Method: (§1) A clinical study was performed wherein patients received either treatment with cabazitaxel or the reference treatment based on mitoxantrone each combined with prednisone or prednisolone.
(§2) More specifically, patients over 18 years of age with metastatic castration resistant metastatic prostate cancer either measurable by RECIST criteria or non-measurable disease with rising PSA levels or appearance of new lesions, ECOG (Eastern Cooperative Oncology Group) performance stage 0-2, and adequate organ function (patients had to have neutrophils >1,500 cells/mm^3, platelets >100,000 cells/mm^3, hemoglobin >10 g/dL, creatinine <1.5×upper limit of normal (ULN), total bilirubin <1×ULN, AST <1.5×ULN, and ALT <1.5×ULN) who had had prior hormone therapy, chemotherapy, and radiotherapy, but had progressive during or after docetaxel treatment (cumulative dose ≥225 mg/m^2) were randomized to 10 mg/day of prednisone with either mitoxantrone 12 mg/m^2 or cabazitaxel 25 mg/m^2, both administered every 3 weeks.
(§3) Patients with a history of congestive heart failure, or myocardial infarction within the last 6 months, or patients with uncontrolled cardiac arrhythmias, angina pectoris, and/or hypertension were not included in the study.
(§4) 720 patients were planned to be included in the clinical study: 360 in each cabazitaxel+prednisone and mitoxantrone+prednisone group. Seven hundred and fifty-five patients (755) (median age 68; 84% white) were actually enrolled, 378 in the cabazitaxel and prednisone/prednisolone group and 377 in the mitoxantrone and prednisone/prednisolone group. The maximal number of treatment cycles was 10 for cabazitaxel and 10 for mitoxantrone. The median number of treatment cycles was 6 for cabazitaxel and 4 for mitoxantrone. The median prior dose of docetaxel treatment was 576 mg/m^2 for the cabazitaxel group and 529 mg/m^2 for the mitoxantrone group. Median follow-up was 12.8 months.
The measurements of the results are performed via the same tests as at inclusion. MRI and spiral computed tomographic (CT) scans are preferably used.
The results are evaluated according to the following criteria (cf RECIST guideline): • overall survival (OS): the time from inclusion to the study to the date of death complete response (CR): disappearance of the lesions • partial response (PR): at least 30% reduction of the largest diameter of the lesion progression (PD): at least 20% increase in the sum of the largest diameter of the lesion or appearance of one or more new lesions • stable disease (SD): reduction of the tumour insufficient to be included in PR and increase of the tumour insufficient to be included in PD.
The confirmations of the measurements are made at least 4 weeks after the response criterion has been established for the first time.
The progression-free survival (PFS) is the time from inclusion in the study and the date of progression or death when the progression is either an increase of the PSA, or of the tumour, or of the pain.

[2] = Same clinical study: adverse reactions, hematologic abnormalities, treatment discontinuation, delays and dose reductions; format: in vivo, human
Method: as §1, §2, §3, §4

[3] = tested on: cancers that are resistant to hormone deprivation; conditions: docetaxel in combination with estramustine or prednisone; cited from earlier work
[4] = human, in vivo, listed as Mitoxantrone
[5] = percent of patients, laboratory values, cabazitaxel: n = 369, mitoxantrone: n = 370

## O=C1c2c(O)ccc(O)c2C(=O)c2c(NCCNCCO)ccc(NCCNCCO)c21 [mitoxantrone, reference compound]
[1]
  Discontinuation of study treatment for disease progression, (%): (70.8) %
[1]; N = 377 mitoxantrone, N = 378 cabazitaxel
  Discontinuation of study treatment for disease progression, no.: 267
[1]; 25 mg/m^2 cabazitaxel or 12 mg/m^2 mitoxantrone every 3 weeks with prednisone
  Overall survival Median: 12.7 months
[1]; earliest progression in tumor, PSA or pain
  PFS Median: 1.4 months
[2]; Example 1
  Rates of febrile neutropenia: 1.3%
[2]; human, in vivo
  Dose reductions, cycles (%): 5.1%
  Dose reductions, no. of cycles: 88
  Treatment delays >9 days, cycles (%): 1.6%
  Treatment delays >9 days, no. of cycles: 28
  Treatment delays ≤9 days, cycles (%): 6.3%
  Treatment delays ≤9 days, no. of cycles: 110
[2]; [4]
  Dose reductions, cycles (%): (5.1) %
  Treatment delays >9 days, cycles (%): (1.6) %
  Treatment delays ≤9 days, cycles (%): (6.3) %
[2]; intention-to-treat
  Discontinuation of study treatment for adverse event, (%): (8.5) %
[2]; intention-to-treat, N = 377 mitoxantrone, N = 378 cabazitaxel
  Discontinuation of study treatment for adverse event, no.: 32
[2]; percent of patients of n = 371
  Abdominal Pain Grade 1-4, (%): (6%)
  Alopecia Grade 1-4, (%): (5%)
  Anorexia Grade 1-4, (%): (11%)
  Anorexia Grade 3-4, (%): (<1%)
  Arrhythmia Grade 1-4, (%): (2%)
  Arrhythmia Grade 3-4, (%): (<1%)
  Arthralgia Grade 1-4, (%): (8%)
  Arthralgia Grade 3-4, (%): (1%)
  Asthenia Grade 1-4, (%): (12%)
  Asthenia Grade 3-4, (%): (2%)
  Back Pain Grade 1-4, (%): (12%)
  Back Pain Grade 3-4, (%): (3%)
  Bone Pain Grade 1-4, (%): (5%)
  Bone Pain Grade 3-4, (%): (2%)
  Constipation Grade 1-4, (%): (15%)
  Constipation Grade 3-4, (%): (<1%)
  Cough Grade 1-4, (%): (6%)
  Dehydration Grade 1-4, (%): (3%)
  Dehydration Grade 3-4, (%): (<1%)
  Diarrhea Grade 1-4, (%): (11%)
  Diarrhea Grade 3-4, (%): (<1%)
  Dizziness Grade 1-4, (%): (6%)
  Dizziness Grade 3-4, (%): (<1%)
  Dysgeusia Grade 1-4, (%): (4%)
  Dyspepsia Grade 1-4, (%): (2%)
  Dyspnea Grade 1-4, (%): (4%)
  Dyspnea Grade 3-4, (%): (<1%)
  Dysuria Grade 1-4, (%): (1%)
  Fatigue Grade 1-4, (%): (27%)
  Fatigue Grade 3-4, (%): (3%)
  Febrile Neutropenia Grade 1-4, (%): (1%)
  Febrile Neutropenia Grade 3-4, (%): (1%)
  Headache Grade 1-4, (%): (5%)
  Hematuria Grade 1-4, (%): (4%)
  Hematuria Grade 3-4, (%): (<1%)
  Hypotension Grade 1-4, (%): (2%)
  Hypotension Grade 3-4, (%): (<1%)
  Mucosal Inflammation Grade 1-4, (%): (3%)
  Mucosal Inflammation Grade 3-4, (%): (<1%)
  Muscle Spasms Grade 1-4, (%): (3%)
  Musculoskeletal Pain Grade 1-4, (%): (5%)
  Musculoskeletal Pain Grade 3-4, (%): (<1%)
  Nausea Grade 1-4, (%): (23%)
  Nausea Grade 3-4, (%): (<1%)
  Pain Grade 1-4, (%): (5%)
  Pain Grade 3-4, (%): (2%)
  Pain in Extremity Grade 1-4, (%): (7%)
  Pain in Extremity Grade 3-4, (%): (1%)
  Peripheral Edema Grade 1-4, (%): (9%)
  Peripheral Edema Grade 3-4, (%): (<1%)
  Peripheral Neuropathy Grade 1-4, (%): (3.2%)
  Peripheral Neuropathy Grade 3-4, (%): (<1%)
  Pneumonia Grade 1-4, (%): (1%)
  Pneumonia Grade 3-4, (%): (<1%)
  Pyrexia Grade 1-4, (%): (6%)
  Pyrexia Grade 3-4, (%): (<1%)
  Urinary Tract Infection Grade 1-4, (%): (3%)
  Urinary Tract Infection Grade 3-4, (%): (1%)
  Vomiting Grade 1-4, (%): (10%)
  Weight Decreased Grade 1-4, (%): (8%)
  Weight Decreased Grade 3-4, (%): (<1%)
[2]; [5]
  Anemia Grade 1-4, (%): (82%)
  Anemia Grade 3-4, (%): (5%)
  Leukopenia Grade 1-4, (%): (93%)
  Leukopenia Grade 3-4, (%): (42%)
  Neutropenia Grade 1-4, (%): (87%)
  Neutropenia Grade 3-4, (%): 58.0%
  Thrombocytopenia Grade 1-4, (%): (43%)
  Thrombocytopenia Grade 3-4, (%): (2%)
[2]; percent of patients, laboratory values, cabazitaxel: n = 369, mitoxantrone: n = 370, listed as Mitoxantrone
  Neutropenia Grade 3-4, (%): (58%)

## CC(=O)O[C@@]12CO[C@@H]1C[C@H](O)[C@@]1(C)C(=O)[C@H](O)C3=C(C)[C@@H](OC(=O)[C@H](O)[C@@H](NC(=O)OC(C)(C)C)c4ccccc4)C[C@@](O)([C@@H](OC(=O)c4ccccc4)[C@H]21)C3(C)C [docetaxel]
[3]
  improvement of survival: 2.4 months
